Source: PMC4806279, “Metabolism and Metabolic Inhibition of Xanthotoxol in Human Liver Microsomes” (Evidence-based Complementary and Alternative Medicine : eCAM, 2016)

Experiments:
cytochrome P450s (CYPs) = assay: Inhibition of xanthotoxol metabolite production in HLMs by a nonspecific CYP inhibitor; format: in vitro ADME, human; conditions: xanthotoxol as substrate, 500 μM ABT
Method: Inhibition study was conducted using the above incubation system consisting of liver microsomes, NADPH-generating system, probe substrate at the concentration of about K m value, and xanthotoxol (or the control inhibitor). The concentrations of positive inhibitors used were as follows: 10 μM furafylline for CYP1A2, 2.5 μM 8-methoxypsoralen for CYP2A6, 10 μM quercetin for CYP2C8, 10 μM sulfaphenazole for CYP2C9, 10 μM quinidine for CYP2D6, 50 μM clomethiazole for CYP2E1, 20 μM omeprazole for CYP2C19, 1 μM ketoconazole for CYP3A4, and 500 μM ABT for broad CYP450s. […]

CYP2E1 [1] = molecular target: T1, CYP2E1 (Homo sapiens, UniProt P05181); format: in vitro ADME; conditions: recombinant enzyme, 30 min, 10 mM, pH 7.4
T1 construct: The HLMs were prepared from eleven individual human donor livers; tissue Research Institute for Liver Disease Co. (Shanghai, China); host or cells: human liver microsomes, pool of eleven donors
Method: (§1) The optimal conditions for microsomal incubation were described previously. The incubation mixture, with a total volume of 200 μL, consisted of 100 mM potassium phosphate buffer (pH 7.4), an NADPH-generating system (10 mM glucose 6-phosphate, 1 unit/mL of glucose 6-phosphate dehydrogenase, and 4 mM MgCl2), liver microsomes (0.3 mg/mL), or recombinant CYP450s (15 nM). […] After a 5 min preincubation at 37°C, the NADP^+ (1 mM, 20 μL) was added into the mixture to initiate the reaction. The reaction was terminated by the addition of methanol (200 μL) with internal standard. The mixture was kept on ice until it was centrifuged at 20 000 ×g for 10 min at 4°C. Aliquots of supernatants were stored at −40°C until analysis. Control incubations without NADPH or without substrate or without microsomes were carried out to ensure that the formation of metabolites was microsomes and NADPH dependent. All incubations throughout the study were carried out in at least three independent experiments with standard deviations (SD) generally below 10%.
The enzymes involved in the xanthotoxol metabolism were investigated using cDNA-expressed human P450 isoforms including CYP3A4, CYP2D6, CYP2E1, CYP2C9, CYP2C19, and CYP1A2. The incubation for each isoenzyme was carried out as described for the liver microsomal study. […]

[2] = format: in vitro ADME; conditions: human
Source text: The following equations were used to predict the xanthotoxol clearance in human:(2) CLint in vitro=Vmax/Km,CLint in vivo=CLint in vitro·SF,CLH=QH·fu·CLint in vivo/QH+fu·CLint in vivo, where SF (scaling factor) represents the milligrams of microsomal protein per gram of liver multiplied by the grams of liver weight; CLint is the intrinsic metabolic clearance; CLH is hepatic clearance; f u is the free fraction in blood (there are no data of xanthotoxol; here f u was arbitrarily proposed to be 1); Q H is the hepatic blood flow. The hepatic clearance of xanthotoxol was calculated using (2), and physiological parameters in human were described as follows: microsomal protein per gram of liver, liver weight per kilogram of body, and liver blood flow for human were 48.8 mg, 25.7 g, and 20.7 mL·min^−1·kg^−1, respectively.

CYP2E1 [3] = molecular target: T1, CYP2E1; format: in vitro ADME; conditions: 100 μM, pH 7.4
Method: (§2) Liver microsomes from human (HLMs) used in this study were provided by the Research Institute for Liver Disease Co. (Shanghai, China). The HLMs were prepared from eleven individual human donor livers. Protein concentration and microsomes activities of CYP2C19, CYP2A6, CYP2C8, CYP2D6, CYP1A2, CYP2C9, CYP2E1, and CYP3A4 had been previously characterized by the Research Institute for Liver Disease Co.
(§3) HLMs phenacetin o-deethylation, coumarin 7-hydroxylation, paclitaxel 6α-hydroxylation, diclofenac 4′-hydroxylation, dextromethorphan o-demethylation, chlorzoxazone 6-hydroxylation, testosterone 6β-hydroxylation, and S-mephenytoin 4′-hydroxylation activities were utilized as selective markers for CYP1A2, CYP2A6, CYP2C8, CYP2C9, CYP2D6, CYP2E1, CYP3A4, and CYP2C19.
as §1
(§4) Inhibition study was conducted using the above incubation system consisting of liver microsomes, NADPH-generating system, probe substrate at the concentration of about K m value, and xanthotoxol (or the control inhibitor). […]

CYP2C8 = molecular target: T2, CYP2C8 (Homo sapiens, UniProt P10632); format: in vitro ADME; conditions: 100 μM, pH 7.4
T2 construct: The HLMs were prepared from eleven individual human donor livers; tissue Research Institute for Liver Disease Co. (Shanghai, China); host or cells: human liver microsomes, pool of eleven donors
T2 sequence (P10632 1-490): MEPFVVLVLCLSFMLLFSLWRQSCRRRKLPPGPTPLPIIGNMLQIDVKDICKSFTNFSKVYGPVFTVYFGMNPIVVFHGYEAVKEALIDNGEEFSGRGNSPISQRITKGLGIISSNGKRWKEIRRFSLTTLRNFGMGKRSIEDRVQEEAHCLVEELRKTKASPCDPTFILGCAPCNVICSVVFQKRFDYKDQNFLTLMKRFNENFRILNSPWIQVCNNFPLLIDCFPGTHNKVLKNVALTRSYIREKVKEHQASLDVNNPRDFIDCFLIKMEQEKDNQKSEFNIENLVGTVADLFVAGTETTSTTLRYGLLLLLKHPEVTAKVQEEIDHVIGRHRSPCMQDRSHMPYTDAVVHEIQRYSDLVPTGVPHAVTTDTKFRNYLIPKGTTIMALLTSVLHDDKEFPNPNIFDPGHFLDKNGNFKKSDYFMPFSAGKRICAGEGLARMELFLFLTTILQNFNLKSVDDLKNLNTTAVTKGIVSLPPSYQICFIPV
Method: as §2, §3, §1, §4

CYP2A6 = molecular target: T3, CYP2A6 (Homo sapiens, UniProt P11509); format: in vitro ADME; conditions: 100 μM, pH 7.4
T3 construct: The HLMs were prepared from eleven individual human donor livers; tissue Research Institute for Liver Disease Co. (Shanghai, China); host or cells: human liver microsomes, pool of eleven donors
T3 sequence (P11509 1-494): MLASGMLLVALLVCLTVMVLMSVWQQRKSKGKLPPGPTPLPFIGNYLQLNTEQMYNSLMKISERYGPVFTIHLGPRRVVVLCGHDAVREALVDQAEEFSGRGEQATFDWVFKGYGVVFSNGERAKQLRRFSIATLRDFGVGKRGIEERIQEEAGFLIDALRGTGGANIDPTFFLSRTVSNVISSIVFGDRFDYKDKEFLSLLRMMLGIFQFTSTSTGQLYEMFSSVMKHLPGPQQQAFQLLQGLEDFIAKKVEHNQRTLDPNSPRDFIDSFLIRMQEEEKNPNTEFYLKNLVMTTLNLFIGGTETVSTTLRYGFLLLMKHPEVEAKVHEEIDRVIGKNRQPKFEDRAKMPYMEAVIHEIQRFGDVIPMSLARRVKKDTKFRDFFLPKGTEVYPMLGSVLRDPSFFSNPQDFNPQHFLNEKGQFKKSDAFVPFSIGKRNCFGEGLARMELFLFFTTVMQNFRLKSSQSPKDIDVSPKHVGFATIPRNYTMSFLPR
Method: as §2, §3, §1, §4

in vitro = in vitro ADME; conditions: human
Method: as §1
To estimate kinetic parameters of xanthotoxol and make sure that the formations of metabolites were in the linear range of both reaction time and the concentration of microsomes, xanthotoxol (0.25–200 μM) was incubated with pooled HLMs for 30 min. Reaction velocities and substrate concentrations were used to calculate the apparent K m and V max values according to nonlinear regression from the Michaelis-Menten equation (see (1)). CLint was calculated as V max/K m. In addition, the result was graphically represented on Eadie-Hofstee plots (velocities versus ratios of velocities to substrate concentrations) to determine whether the metabolism was monophasic or biphasic. Consider(1) V=Vmax·S/Km+S, where V max was the maximum reaction velocity, K m was the Michaelis constant that represented the substrate concentration at which the velocity was half of V max, V was the reaction velocity, and [S] was the substrate concentration.

CYP1A2 = molecular target: T4, CYP1A2 (Homo sapiens, UniProt P05177); assay: Inhibition of phenacetin o-deethylation in human liver microsomes; format: in vitro ADME
T4 construct: The HLMs were prepared from eleven individual human donor livers; tissue Research Institute for Liver Disease Co. (Shanghai, China); host or cells: human liver microsomes, pool of eleven donors
T4 sequence (P05177 1-516): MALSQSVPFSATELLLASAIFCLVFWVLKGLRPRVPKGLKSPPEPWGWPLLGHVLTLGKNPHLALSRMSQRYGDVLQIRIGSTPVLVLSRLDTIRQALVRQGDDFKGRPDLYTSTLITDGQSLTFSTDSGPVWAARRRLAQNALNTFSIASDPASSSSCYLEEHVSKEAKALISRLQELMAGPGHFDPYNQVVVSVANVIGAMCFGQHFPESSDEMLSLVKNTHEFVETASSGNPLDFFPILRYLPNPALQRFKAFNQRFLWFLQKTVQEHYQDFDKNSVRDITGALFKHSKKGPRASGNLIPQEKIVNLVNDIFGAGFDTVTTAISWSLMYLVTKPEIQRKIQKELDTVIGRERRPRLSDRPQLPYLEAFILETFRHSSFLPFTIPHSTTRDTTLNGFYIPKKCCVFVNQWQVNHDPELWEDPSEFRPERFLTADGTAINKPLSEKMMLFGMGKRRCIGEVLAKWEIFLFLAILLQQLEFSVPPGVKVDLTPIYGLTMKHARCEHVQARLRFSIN
Method: as §2, §3, §1, §4

CYP3A4 = molecular target: T5, CYP3A4 (Homo sapiens, UniProt P08684); assay: Inhibition of testosterone 6β-hydroxylation in human liver microsomes; format: in vitro ADME
T5 construct: The HLMs were prepared from eleven individual human donor livers; tissue Research Institute for Liver Disease Co. (Shanghai, China); host or cells: human liver microsomes, pool of eleven donors
Method: as §2, §3, §1, §4

[4] = HLMs, Lineweaver-Burk and Dixon plots

T5 sequence (P08684 whole entry): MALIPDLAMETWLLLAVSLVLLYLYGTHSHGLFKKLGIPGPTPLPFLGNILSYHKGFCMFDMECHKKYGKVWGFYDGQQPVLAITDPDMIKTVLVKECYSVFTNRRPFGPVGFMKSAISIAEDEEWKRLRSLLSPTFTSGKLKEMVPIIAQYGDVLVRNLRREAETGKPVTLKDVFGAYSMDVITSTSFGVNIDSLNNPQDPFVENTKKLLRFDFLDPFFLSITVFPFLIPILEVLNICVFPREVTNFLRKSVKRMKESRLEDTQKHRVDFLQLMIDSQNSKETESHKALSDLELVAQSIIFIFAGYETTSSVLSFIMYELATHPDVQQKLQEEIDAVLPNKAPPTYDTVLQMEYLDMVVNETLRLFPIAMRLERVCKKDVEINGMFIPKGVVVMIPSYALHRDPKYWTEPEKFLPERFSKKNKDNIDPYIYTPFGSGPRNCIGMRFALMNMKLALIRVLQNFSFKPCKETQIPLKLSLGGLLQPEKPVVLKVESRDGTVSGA
T1 sequence (P05181 whole entry): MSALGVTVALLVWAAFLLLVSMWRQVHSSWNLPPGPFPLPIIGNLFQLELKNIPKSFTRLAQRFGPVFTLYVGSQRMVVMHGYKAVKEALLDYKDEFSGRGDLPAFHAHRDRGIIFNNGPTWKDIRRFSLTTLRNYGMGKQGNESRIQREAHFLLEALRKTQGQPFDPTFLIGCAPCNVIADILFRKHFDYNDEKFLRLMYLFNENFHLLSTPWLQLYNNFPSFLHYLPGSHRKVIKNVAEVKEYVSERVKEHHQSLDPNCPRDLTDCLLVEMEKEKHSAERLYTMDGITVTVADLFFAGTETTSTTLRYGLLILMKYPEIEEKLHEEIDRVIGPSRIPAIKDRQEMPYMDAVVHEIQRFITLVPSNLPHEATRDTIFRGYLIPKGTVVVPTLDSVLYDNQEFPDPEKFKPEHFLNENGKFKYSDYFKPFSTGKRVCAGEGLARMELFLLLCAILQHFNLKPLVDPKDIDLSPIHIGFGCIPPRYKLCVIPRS

Compound | inhibition against metabolite production (cytochrome P450s (CYPs)) | amount of metabolite M generated compared to CYP1A2 level (CYP2E1 [1]) | hepatic clearance (CLH) [2] | percentage of CLH versus hepatic blood flow (QH)% [2] | clearance classification ([2]; microsomes) | inhibited the activity of CYP2E1 (CYP2E1 [3]) | inhibited the activity of CYP2C8 (CYP2C8) | inhibited the activity of CYP2A6 (CYP2A6) | Vmax of xanthotoxol metabolism (in vitro; 30 min, pH 7.4) | Intrinsic clearance (CLint) (in vitro; microsomes, pH 7.4) | microsomal CLint (in vitro; microsomes, pH 7.4, Intrinsic clearance (CLint)) | Km at 30 min (in vitro; pH 7.4) | IC50 (CYP1A2) | Ki (CYP1A2) | type of inhibition of CYP1A2 (CYP1A2; [4]) | IC50 (CYP3A4) | Ki (CYP3A4) | type of inhibition of CYP3A4 (CYP3A4; [4])
Nn1nnc2ccccc21 [Aminobenzotriazole (ABT), 1-aminobenzotriazole] | potent inhibition | – | – | – | – | – | – | – | – | – | – | – | – | – | – | – | – | –
O=c1ccc2cc3ccoc3c(O)c2o1 [xanthotoxol, Xanthotoxol] | – | 7.3% | 15.91 mL·min^−1·kg^−1 body weight | 76.8% | high-clearance drug | 25.9% | 52.1% | 82.1% | 0.55 nmol/min/mg | 65 µL/min/mg | 60 µL/min/mg | 8.46 µM | 27.8 µM | 21.1 µM | noncompetitive | 7.43 µM | 2.22 µM | noncompetitive
